What was measured:
[1] = test system: Cryptococcus neoformans; experiment: Antifungal activity against Cryptococcus neoformans ATCC 36556 after 48 hrs by microplate broth assay; assay type: functional; conditions: ATCC 36556, 48 h
[2] = test system: Candida albicans; experiment: Antifungal activity against Candida albicans ATCC 10259 after 24 hrs by microplate broth assay; assay type: functional; conditions: ATCC 10259, 24 h
[3] = test system: Biomphalaria alexandrina; experiment: Molluscicidal activity against Biomphalaria alexandrina assessed as number of dead snail at 20 ppm after 48 hrs; assay type: organism-based; conditions: in vivo
[4] = test system: Biomphalaria alexandrina; experiment: Molluscicidal activity against Biomphalaria alexandrina assessed as number of dead snail at 10 ppm after 48 hrs; assay type: organism-based; conditions: in vivo
[5] = test system: Biomphalaria alexandrina; experiment: Molluscicidal activity against Biomphalaria alexandrina assessed as number of dead snail at 10 ppm after 24 hrs allowed to recover for an additional 24 hrs; assay type: organism-based; conditions: in vivo
[6] = test system: Aspergillus fumigatus; experiment: Antifungal activity against Aspergillus fumigatus ATCC 13073 after 48 hrs by microplate broth assay; assay type: functional; conditions: ATCC 13073, 48 h
[7] = test system: Biomphalaria alexandrina; experiment: Molluscicidal activity against Biomphalaria alexandrina assessed as number of dead snail at 20 ppm after 24 hrs; assay type: organism-based; conditions: in vivo
[8] = test system: Biomphalaria alexandrina; experiment: Molluscicidal activity against Biomphalaria alexandrina assessed as number of dead snail at 10 ppm after 24 hrs; assay type: organism-based; conditions: in vivo
[9] = test system: Biomphalaria alexandrina; experiment: Molluscicidal activity against Biomphalaria alexandrina assessed as number of dead snail at 20 ppm after 24 hrs allowed to recover for an additional 24 hrs; assay type: organism-based; conditions: in vivo

Compound | MIC [1] | MIC [2] | Activity [3] | Activity [4] | Activity [5] | MIC [6] | Activity [7] | Activity [8] | Activity [9]
C[C@@H]1O[C@@H](O[C@H]2[C@H](O[C@H]3CC[C@@]4(C)[C@@H](CC[C@]5(C)[C@@H]4CC=C4[C@@H]6CC(C)(C)CC[C@]6(C(=O)O)CC[C@]45C)[C@]3(C)CO)OC[C@H](O[C@@H]3O[C@H](CO)[C@@H](O)[C@H](O)[C@H]3O)[C@@H]2O)[C@H](O)[C@H](O[C@@H]2OC[C@H](O)[C@H](O)[C@H]2O)[C@H]1O [SALZMANNIANOSIDE B] | ≤ 8 µg/mL | ≥ 125 µg/mL | 70% | 100% | Active | ≥ 250 µg/mL |  |  | 
C[C@@H]1O[C@@H](O[C@H]2[C@H](O[C@H]3CC[C@]4(C)[C@H]5CC=C6[C@@H]7CC(C)(C)CC[C@]7(C(=O)O)CC[C@@]6(C)[C@]5(C)CC[C@H]4C3(C)C)OC[C@H](O[C@@H]3O[C@H](CO)[C@@H](O)[C@H](O)[C@H]3O)[C@@H]2O)[C@H](O)[C@H](O)[C@H]1O [HEDERACOLCHISIDE A1] |  |  | 100% | 100% | Active |  | Active | Active | Active
C[C@@H]1O[C@@H](O[C@H]2[C@H](O[C@H]3CC[C@@]4(C)[C@@H](CC[C@]5(C)[C@@H]4CC=C4[C@@H]6CC(C)(C)CC[C@]6(C(=O)O)CC[C@]45C)[C@]3(C)CO)OC[C@H](O[C@@H]3O[C@H](CO)[C@@H](O)[C@H](O)[C@H]3O)[C@@H]2O)[C@H](O)[C@H](O)[C@H]1O [HEDERACOLCHISIDE A] | ≤ 8 µg/mL | ≤ 16 µg/mL | 100% | 90% |  | ≥ 250 µg/mL | Active |  | Active
C[C@@H]1O[C@@H](O[C@H]2[C@H](O[C@H]3CC[C@]4(C)[C@H]5CC=C6[C@@H]7CC(C)(C)CC[C@]7(C(=O)O)CC[C@@]6(C)[C@]5(C)CC[C@H]4[C@]3(C)C=O)OC[C@H](O[C@@H]3O[C@H](CO)[C@@H](O)[C@H](O)[C@H]3O)[C@@H]2O)[C@H](O)[C@H](O)[C@H]1O [SALZMANNIANOSIDE A] | ≤ 8 µg/mL | ≤ 16 µg/mL | 100% | 0% | Not Active | ≥ 125 µg/mL | Active | Not Active | Active
